From PMC11062922 (Nature Chemical Biology, 2023)
Read-outs that look alike come from different tables or passages of the source.

Experiments:
[1] = target: PKN3 (Homo sapiens, UniProt Q6P5Z2); assay: Kinobeads two-dose competition binding: PKN3; set-up: endogenous in cells; conditions: for CATDSPKN3: selectivity score from Kinobeads two-dose data
Description: Briefly, Kinobeads comprise seven broad-spectrum small molecule kinase inhibitors immobilized on Sepharose beads. […]. Compounds of interest are set to compete for target protein binding with Kinobeads in the lysate and the amount of a given protein bound to Kinobeads in the presence of a compound can be quantified relative to a dimethylsulfoxide (DMSO) vehicle control by label-free mass spectrometry. This assay measures the physical interaction of a compound with thousands of endogenous proteins in parallel and, when systematically increasing the concentration of competitor, enables the calculation of an apparent interaction constant ( Kdapp ) for each compound and protein.
Kinobeads pulldown experiments were performed as described previously[13],[14],[17] with minor modification. […] The protein concentration was adjusted to 5 mg ml^−1. Kinase inhibitors were spiked into 0.5 ml of cell lysate at final concentrations of 100 and 1,000 nM (or DMSO, 0.3, 1, 3, 10, 30, 100, 300 and 1,000 nM for full dose experiments). […] Lysates were incubated for 45 min at 4 °C. Subsequently, lysates were incubated with Kinobeads ε (17.5 µl of settled beads) for 30 min at 4 °C. To assess the degree of protein depletion from the lysates by Kinobeads, the flow through of the DMSO control was recovered for a pulldown of pulldown experiment where the lysate was incubated a second time with fresh Kinobeads. Beads were washed in three steps with buffer containing 0.4%, 0.2% and no IGEPAL. Bound proteins were reduced with 50 mM DTT in 8 M Urea, 40 mM Tris-HCl pH 7.4 for 30 min at room temperature. After alkylation with 55 mM chloroacetamide, the urea concentration was reduced to 1–2 M and proteins were digested with trypsin. Acidified peptides were desalted and concentrated using SepPak tC18 µEluation plates (Waters). Samples were frozen, dried by vacuum centrifugation and stored at −20 °C.
Each kinase inhibitor was processed together with all DMSO controls of the same plate. Additionally, each search was supplemented with five high quality DMSO controls for consistent peptide identification and protein grouping. The resultant file (proteinGroups.txt) was used for subsequent filtering, normalization, data visualization and target annotation that was automatically performed by a data processing pipeline built in house that used R (including the ‘drc’ and ‘heatmap’ packages). First, reverse hits, potential contaminants and not quantified proteins in the DMSO control samples were discarded. Protein raw and label-free quantification intensities were normalized to the median DMSO control intensity to obtain relative residual binding intensities for each protein group at every inhibitor concentration and standard deviations of the DMSO control intensity were calculated. IC50 values were estimated based on the following equation IC50=I×100−inhibition/inhibition where [I] is the inhibitor concentration that was used for IC50 calculation and ‘inhibition’ the relative residual binding intensity. […]. Estimated Kdapp values were then calculated by multiplying the estimated IC50 values with a protein-dependent correction factor that was limited to a maximum value of one. The correction factor accounts for the depletion of a target protein from the lysate by Kinobeads. The depletion can be measured by the ratio of the amount of protein captured in two consecutive pulldowns of the same DMSO control lysate. In this study, correction factors were determined in separate experiments using the same lysate mixture and the same bead batch. Correction factors were set to the median of all correction factors. Targets of kinase inhibitors were annotated using the previously published random forest classifier. A training data set was annotated manually. […]

[2] = system: MARK3; assay: Kinobeads competition binding: MARK3; set-up: species or system human; conditions: target MARK3
[3] = system: NQO2; assay: Kinobeads competition binding: NQO2; set-up: species or system human; conditions: target NQO2
[4] = system: CDK17; assay: Kinobeads competition binding: CDK17; set-up: species or system human; conditions: target CDK17
[5] = target: T1, CDK6 (Homo sapiens, UniProt Q00534); assay: Kinobeads competition binding: CDK6; conditions: target CDK6
T1 construct: endogenous in cells
T1 sequence (Q00534 whole entry): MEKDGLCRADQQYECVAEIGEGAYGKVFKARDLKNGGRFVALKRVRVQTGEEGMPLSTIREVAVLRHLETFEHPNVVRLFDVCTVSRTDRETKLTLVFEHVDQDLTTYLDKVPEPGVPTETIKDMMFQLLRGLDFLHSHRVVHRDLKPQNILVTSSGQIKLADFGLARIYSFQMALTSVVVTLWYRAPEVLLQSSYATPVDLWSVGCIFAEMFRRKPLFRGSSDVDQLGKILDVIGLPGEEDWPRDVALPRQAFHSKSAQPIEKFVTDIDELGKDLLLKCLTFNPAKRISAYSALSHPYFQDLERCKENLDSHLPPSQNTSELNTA

[6] = system: ILK; assay: Kinobeads competition binding: ILK; set-up: species or system human; conditions: target ILK
[7] = system: PIK3C2B; assay: Kinobeads competition binding: PIK3C2B; set-up: species or system human; conditions: target PIK3C2B
[8] = target: T2, PIM3 (Homo sapiens, UniProt Q86V86); assay: Kinobeads competition binding: PIM3; conditions: target PIM3
T2 construct: a mixture of lysates from five cancer cell lines; endogenous in cells
Description: Supplement 41589_2023_1459_MOESM4_ESM.xlsx, sheet "CATDS matrix" | column: PIM3

[9] = system: MAP4K1; assay: Kinobeads competition binding: MAP4K1; set-up: species or system human; conditions: target MAP4K1
[10] = target: T3, EPHA7 (Homo sapiens, UniProt Q15375); assay: Kinobeads competition binding: EPHA7; conditions: target EPHA7
T3 construct: endogenous in cells
T3 sequence (Q15375 28-998): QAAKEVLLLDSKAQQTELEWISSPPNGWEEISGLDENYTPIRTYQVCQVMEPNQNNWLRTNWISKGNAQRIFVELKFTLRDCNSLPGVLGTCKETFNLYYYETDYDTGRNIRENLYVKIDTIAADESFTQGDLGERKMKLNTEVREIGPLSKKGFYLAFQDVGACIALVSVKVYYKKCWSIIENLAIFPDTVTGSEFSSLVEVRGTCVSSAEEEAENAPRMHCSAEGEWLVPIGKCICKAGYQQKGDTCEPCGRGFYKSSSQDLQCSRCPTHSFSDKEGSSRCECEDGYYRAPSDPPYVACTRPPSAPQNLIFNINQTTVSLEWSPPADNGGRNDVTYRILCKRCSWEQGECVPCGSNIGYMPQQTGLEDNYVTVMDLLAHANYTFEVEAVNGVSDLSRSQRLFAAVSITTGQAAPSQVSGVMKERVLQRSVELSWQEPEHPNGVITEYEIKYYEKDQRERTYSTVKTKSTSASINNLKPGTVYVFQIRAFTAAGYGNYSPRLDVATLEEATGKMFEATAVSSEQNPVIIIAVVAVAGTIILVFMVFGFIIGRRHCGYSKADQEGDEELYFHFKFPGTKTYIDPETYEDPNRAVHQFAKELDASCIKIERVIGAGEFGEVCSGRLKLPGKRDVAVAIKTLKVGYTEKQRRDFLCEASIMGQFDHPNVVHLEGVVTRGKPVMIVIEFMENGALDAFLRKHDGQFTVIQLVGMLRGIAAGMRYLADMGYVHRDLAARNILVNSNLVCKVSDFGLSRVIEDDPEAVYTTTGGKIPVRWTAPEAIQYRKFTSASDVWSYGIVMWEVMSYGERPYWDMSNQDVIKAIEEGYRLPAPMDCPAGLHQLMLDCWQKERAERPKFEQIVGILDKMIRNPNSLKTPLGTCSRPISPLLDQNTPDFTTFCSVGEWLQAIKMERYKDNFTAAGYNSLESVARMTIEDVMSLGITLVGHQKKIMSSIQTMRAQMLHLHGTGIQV
Description: Supplement 41589_2023_1459_MOESM4_ESM.xlsx, sheet "CATDS matrix" | column: EPHA7

[11] = target: T4, BCR (Homo sapiens, UniProt P00519+P11274); assay: Kinobeads competition binding: BCR; conditions: target BCR
T4 construct: endogenous in cells
T4 sequence (P11274+P00519 fused): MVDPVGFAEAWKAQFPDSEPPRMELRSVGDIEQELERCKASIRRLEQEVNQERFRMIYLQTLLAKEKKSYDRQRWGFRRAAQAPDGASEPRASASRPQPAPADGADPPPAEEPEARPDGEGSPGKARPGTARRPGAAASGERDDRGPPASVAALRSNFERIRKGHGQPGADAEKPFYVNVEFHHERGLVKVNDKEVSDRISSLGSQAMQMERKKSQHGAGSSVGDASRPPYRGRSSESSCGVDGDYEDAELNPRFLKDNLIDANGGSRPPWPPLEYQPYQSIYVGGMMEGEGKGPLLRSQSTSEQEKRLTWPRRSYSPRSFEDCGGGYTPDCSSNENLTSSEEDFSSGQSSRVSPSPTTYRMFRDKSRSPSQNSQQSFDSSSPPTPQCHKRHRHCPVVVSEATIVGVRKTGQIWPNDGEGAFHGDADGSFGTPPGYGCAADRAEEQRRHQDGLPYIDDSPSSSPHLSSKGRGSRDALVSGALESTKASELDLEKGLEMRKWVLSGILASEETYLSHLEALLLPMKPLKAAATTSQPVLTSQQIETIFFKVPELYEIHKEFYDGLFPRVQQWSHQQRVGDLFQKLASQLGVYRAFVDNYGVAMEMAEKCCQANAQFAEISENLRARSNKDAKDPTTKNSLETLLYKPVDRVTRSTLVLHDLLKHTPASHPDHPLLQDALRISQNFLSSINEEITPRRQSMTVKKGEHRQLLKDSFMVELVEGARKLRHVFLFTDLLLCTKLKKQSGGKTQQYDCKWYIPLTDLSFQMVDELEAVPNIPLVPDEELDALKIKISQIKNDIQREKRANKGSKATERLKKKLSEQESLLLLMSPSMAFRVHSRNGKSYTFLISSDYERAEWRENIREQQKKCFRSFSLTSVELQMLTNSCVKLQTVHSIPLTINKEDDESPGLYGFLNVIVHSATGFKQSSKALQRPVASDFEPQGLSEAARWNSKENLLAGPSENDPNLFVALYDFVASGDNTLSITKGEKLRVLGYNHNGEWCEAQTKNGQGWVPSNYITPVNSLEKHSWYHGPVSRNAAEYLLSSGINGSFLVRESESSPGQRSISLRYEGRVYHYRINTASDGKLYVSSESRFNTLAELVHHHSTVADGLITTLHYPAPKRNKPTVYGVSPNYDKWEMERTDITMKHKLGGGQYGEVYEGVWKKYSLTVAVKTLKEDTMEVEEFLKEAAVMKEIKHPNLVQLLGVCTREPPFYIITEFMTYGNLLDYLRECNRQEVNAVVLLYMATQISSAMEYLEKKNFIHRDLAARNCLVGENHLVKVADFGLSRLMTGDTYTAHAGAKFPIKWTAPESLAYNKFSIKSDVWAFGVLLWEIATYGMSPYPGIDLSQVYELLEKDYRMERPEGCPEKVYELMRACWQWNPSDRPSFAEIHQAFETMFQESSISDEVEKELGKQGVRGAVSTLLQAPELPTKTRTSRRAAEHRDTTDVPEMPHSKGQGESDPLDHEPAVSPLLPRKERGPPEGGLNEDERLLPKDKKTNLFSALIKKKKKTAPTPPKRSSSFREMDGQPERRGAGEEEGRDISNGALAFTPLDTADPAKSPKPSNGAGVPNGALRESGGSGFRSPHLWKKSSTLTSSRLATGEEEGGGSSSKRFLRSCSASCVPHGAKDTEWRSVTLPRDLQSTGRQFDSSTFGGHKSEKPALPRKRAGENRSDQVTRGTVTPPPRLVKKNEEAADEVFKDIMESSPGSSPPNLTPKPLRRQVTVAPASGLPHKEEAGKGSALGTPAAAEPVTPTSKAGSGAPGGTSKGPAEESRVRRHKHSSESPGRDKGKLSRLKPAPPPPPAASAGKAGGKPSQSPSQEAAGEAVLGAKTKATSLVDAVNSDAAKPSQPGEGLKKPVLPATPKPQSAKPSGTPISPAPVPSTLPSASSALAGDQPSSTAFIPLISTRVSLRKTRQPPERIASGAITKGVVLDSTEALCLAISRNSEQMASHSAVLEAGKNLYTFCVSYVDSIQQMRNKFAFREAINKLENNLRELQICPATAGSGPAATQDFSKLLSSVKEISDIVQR
Description: Supplement 41589_2023_1459_MOESM4_ESM.xlsx, sheet "CATDS matrix" | column: BCR

[12] = system: ARAF; assay: Kinobeads competition binding: ARAF; set-up: species or system human; conditions: target ARAF
[13] = system: NEK1; assay: Kinobeads competition binding: NEK1; set-up: species or system human; conditions: target NEK1
[14] = system: CDK12; assay: Kinobeads competition binding: CDK12; set-up: species or system human; conditions: target CDK12
[15] = target: ABL1 (Homo sapiens, UniProt P00519); assay: Kinobeads competition binding: ABL1; conditions: target ABL1;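 further: selectivity score: engagement of this protein divided by summed engagement of all targets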
ABL1, sequence (P00519 28-1130 limits assumed): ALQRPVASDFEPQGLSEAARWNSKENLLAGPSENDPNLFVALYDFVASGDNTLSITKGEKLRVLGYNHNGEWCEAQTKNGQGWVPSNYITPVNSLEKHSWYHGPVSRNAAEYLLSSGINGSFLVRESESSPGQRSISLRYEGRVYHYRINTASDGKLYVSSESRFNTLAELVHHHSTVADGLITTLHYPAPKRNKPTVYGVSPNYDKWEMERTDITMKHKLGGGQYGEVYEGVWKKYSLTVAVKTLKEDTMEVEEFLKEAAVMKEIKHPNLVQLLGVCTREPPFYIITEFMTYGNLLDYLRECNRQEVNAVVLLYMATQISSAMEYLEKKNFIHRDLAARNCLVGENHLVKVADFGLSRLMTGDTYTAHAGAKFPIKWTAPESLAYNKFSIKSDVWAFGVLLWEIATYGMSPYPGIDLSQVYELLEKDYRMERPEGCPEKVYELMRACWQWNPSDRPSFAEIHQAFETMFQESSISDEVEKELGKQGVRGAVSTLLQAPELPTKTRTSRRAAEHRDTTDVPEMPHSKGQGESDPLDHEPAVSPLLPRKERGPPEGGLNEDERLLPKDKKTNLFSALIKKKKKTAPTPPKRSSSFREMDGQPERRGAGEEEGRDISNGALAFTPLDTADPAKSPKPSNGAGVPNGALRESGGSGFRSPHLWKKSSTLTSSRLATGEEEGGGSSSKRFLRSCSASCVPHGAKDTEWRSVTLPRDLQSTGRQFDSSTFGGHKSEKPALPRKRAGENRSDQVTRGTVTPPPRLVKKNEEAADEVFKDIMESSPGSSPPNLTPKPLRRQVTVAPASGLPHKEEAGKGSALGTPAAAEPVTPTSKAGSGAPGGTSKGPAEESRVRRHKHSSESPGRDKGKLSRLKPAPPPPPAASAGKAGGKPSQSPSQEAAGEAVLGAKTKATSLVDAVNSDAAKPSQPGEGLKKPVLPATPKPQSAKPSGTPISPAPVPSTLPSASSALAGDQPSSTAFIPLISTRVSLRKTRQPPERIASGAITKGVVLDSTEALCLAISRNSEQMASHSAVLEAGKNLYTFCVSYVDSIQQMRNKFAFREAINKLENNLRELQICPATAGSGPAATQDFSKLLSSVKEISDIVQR
Description: Supplement 41589_2023_1459_MOESM4_ESM.xlsx, sheet "CATDS matrix" | column: ABL1

[16] = system: ACVR2B; assay: Kinobeads competition binding: ACVR2B; set-up: species or system human; conditions: target ACVR2B
[17] = system: FN3KRP; assay: Kinobeads competition binding: FN3KRP; set-up: species or system human; conditions: target FN3KRP;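 further: share of total target engagement due to this protein at one drug concentration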
[18] = system: MAPK10; assay: Kinobeads competition binding: MAPK10; set-up: species or system human; conditions: target MAPK10
[19] = system: HSPE1; assay: Kinobeads competition binding: HSPE1; set-up: species or system human; conditions: target HSPE1
[20] = Kinobeads two-dose, read-out: Kdapp PKN3

Structure (SMILES) | CATDSPKN3 [1] | CATDS [2] | CATDS [3] | CATDS [4] | CATDS [5] | CATDS [6] | CATDS [7] | CATDS [8] | CATDS [9] | CATDS [10] | CATDS [11] | CATDS [12] | CATDS [13] | CATDS [14] | CATDS [15] | CATDS [16] | CATDS [17] | CATDS [18] | CATDS [19] | further results
CCn1c(-c2nonc2N)nc2c(C#CC(C)(C)O)nc(OCCNC)cc21 [GSK949675A] | 0.86 |  |  |  |  |  |  |  |  |  |  |  |  |  |  |  |  |  |  | potency estimated from few doses [1, 20]: 2.5 nM
CCc1cc2c(cc1N1CCC(N3CCOCC3)CC1)C(C)(C)c1[nH]c3cc(C#N)ccc3c1C2=O [Alectinib] |  | 0 | 0 | 0 | 0 | 0 | 0 | 0 | 0 | 0 | 0 | 0 | 0 | 0 | 0 | 0 | 0 | 0 | 0 | 
CCN1CCN(Cc2ccc(Nc3ncc(F)c(-c4cc(F)c5nc(C)n(C(C)C)c5c4)n3)nc2)CC1 [Abemaciclib] |  | 0 | 0 | 0.02553 |  | 0 | 0 | 0 | 0 | 0 | 0 | 0 | 0 | 0 | 0 | 0 | 0 | 0 | 0 | 
Nc1ncnc2[nH]c(-c3ccccc3)nc12 [AH5015_KCGS] |  | 0 | 0 | 0 | 0 | 0 | 0 | 0 | 0 | 0 | 0.0268 | 0 | 0 | 0 | 0 | 0 | 0 | 0 | 0 | 
CCn1c(-c2nonc2N)nc2c(C#CC(C)(C)O)nc(OCCN)cc21 [GSK902056A] | 0.93 |  |  |  |  |  |  |  |  |  |  |  |  |  |  |  |  |  |  | potency estimated from few doses [1, 20]: 1 nM
N#CC1(c2ccc(NC(=O)c3cccnc3NCc3ccncc3)cc2)CCCC1 [Apatinib] |  | 0 | 0 | 0 | 0 | 0 | 0 | 0 | 0 | 0 | 0 | 0 | 0 | 0 | 0 | 0 | 0 | 0 | 0 | 
C[C@]12O[C@H](C[C@]1(O)CO)n1c3ccccc3c3c4c(c5c6ccccc6n2c5c31)CNC4=O [Lestaurtinib] |  |  |  |  |  |  |  |  |  |  |  |  |  |  |  |  |  |  |  | potency estimated from few doses ([1]; read-out: Lestaurtinib Drugmatrix value, Gene Name PKN3, one column per experiment number and replicate (R1-R3)): 755 nM
NCc1ccc(-c2nc(-c3ccncc3)c(-c3ccc(Cl)c(O)c3)[nH]2)cc1 [SB-476429-A] | 0.21 |  |  |  |  |  |  |  |  |  |  |  |  |  |  |  |  |  |  | potency estimated from few doses ([1]; read-out: Kdapp PKN3): 36 nM
CN(C)C/C=C/C(=O)Nc1cc2c(Nc3ccc(F)c(Cl)c3)ncnc2cc1O[C@H]1CCOC1 [Afatinib] |  |  | 0 |  |  |  |  | 0 |  | 0 | 0 | 0 |  | 0 | 0 |  | 0 |  | 0 | 
